Common to all, as to assay type: physicochemical
A short description of assay [1]: Second-order rate constant of IEDDA reaction of TCO with tetrazine 2.1 in MeCN by UV-Vis. The note with it: activator 2.1; in MeCN at 20 °C; second-order conditions. How it is done: (§1) The second-order rate constant of the IEDDA reaction of 3,6-dimethyl-1,2,4,5-tetrazine (2.1) or 3,6-di(pyridin-2-yl)-1,2,4,5-tetrazine (2.2) and a compound of the disclosure in MeCN at 20 °C was determined by UV-Vis spectrometry under second-order reaction conditions (n=1). A cuvette was filled with a solution of 3,6-dimethyl-1,2,4,5-tetrazine or 3,6-di(pyridin-2-yl)-1,2,4,5-tetrazine (3 mL 0.083 mM in MeCN), and equilibrated at 20 °C. Next, a solution of the compound of the disclosure (10.0 μL 25 mM in acetonitrile, 2.50×10^−7 mol) was added, and the solution was quickly homogenized and inserted in the UV spectrometer. The absorption at λ=540 nm (specific for the tetrazine moiety) was measured every second in a time course experiment. From the decay of this absorption, the conversion was calculated. The second-order rate constant k2 was determined from the slope of the curve of a plot of 1/c −1/c0 versus time.

The nature of assay [2]: Second-order rate constant of IEDDA reaction of TCO with tetrazine 2.2 in MeCN by UV-Vis. The note with it: activator 2.2; in MeCN at 20 °C; second-order conditions. How it is done: as §1
A short description of assay [3]: Releasing activity of s-TCO derivatives on reaction with 3,6-dimethyl-1,2,4,5-tetrazine (HPLC-MS PDA). The note with it: acetonitrile/PBS; for formation of the (pyridazine) elimination product: after 30 min. How it is done: To a stock solution of 1.7 (10 uL 17.8 mM in DMSO, 1.78×10^−7 mol) was added acetonitrile (0.2 mL), PBS (0.8 mL), and a stock solution of 3,6-dimethyl-1,2,4,5-tetrazine (7.1 uL 25 mM in DMSO, 1.78×10^−7 mol). […] ESI-MS: m/z Calc. for C18H21N3O4 343.15 Da; Obs. [M+H]^+ 344.25 Da, max=243 nm.
To a solution of 1.21 (3.75×10^−7 mol) in acetonitrile (0.2 mL) was added PBS (0.8 mL), and a stock solution of 3,6-dimethyl-1,2,4,5-tetrazine (20 uL 25 mM in DMSO, 5.0×10^−7 mol). […] ESI-MS: m/z Calc. for C18H21N3O4 343.15 Da; Obs. [M+H]^+ 344.25 Da, λmax=250 nm.
To a solution of 1.22 (3.75×10-8 mol) in acetonitrile (0.02 mL) was added PBS (0.08 mL), and a stock solution of 3,6-dimethyl-1,2,4,5-tetrazine (2 uL 25 mM in DMSO, 5.0×10-8 mol).

Here are results for 7 molecules from patent US20260365688A1, “STRAINED BICYCLONONENES” (TAGWORKS PHARMACEUTICALS B.V., priority 2022, published 2026).

As to `O=C1O[C@@H]2C=CCCC[C@@H]3[C@H]1[C@@H]32` (stereo in doubt) [Compound 1.17a, (1R,2S,8R,11S,E)-9-Oxatricyclo[6.3.0.0^2,11]undec-6-en-10-one], the “Rate constants k2” value was 11.5 M⁻¹ s⁻¹ in assay [1] and 1100 M⁻¹ s⁻¹ in assay [2].

As to `O=C1O[C@@H]2C=CCCC[C@@H]3[C@H]1[C@@H]32` (stereo in doubt) [Compound 1.17b, (1R,2S,8R,11S,E)-9-Oxatricyclo[6.3.0.0^2,11]undec-6-en-10-one], the “Rate constants k2” value in assay [1] stood at 8.7 M⁻¹ s⁻¹.

As for `COC(=O)[C@@H]1[C@@H]2C/C=C/[C@H](O)CC[C@@H]21` [Compound 1.6b, Methyl (1R,5R,8S,9S,E)-5-hydroxybicyclo[6.1.0]non-3-ene-9-carboxylate], in assay [1], the “Rate constants k2” value came to 3.3 M⁻¹ s⁻¹.

`CN(Cc1ccccc1)C(=O)O[C@H]1/C=C/C[C@@H]2[C@H](CC1)[C@@H]2C(=O)ON1C(=O)CCC1=O` [Compound 1.7, 2,5-Dioxopyrrolidin-1-yl (1R,5R,8S,9S,E)-5-((benzyl(methyl)carbamoyl)oxy)bicyclo[6.1.0]non-3-ene-9-carboxylate]: the “Rate constants k2” value in assay [1] came to 2.9 M⁻¹ s⁻¹. In assay [2], the “Rate constants k2” value stood at 375 M⁻¹ s⁻¹. In addition, in assay [3], the “disappearance of the pink color (tetrazine consumption)” value is “within minutes” and the “formation of the (pyridazine) elimination product” value was “quantitative formation”.

As for `COC(=O)[C@H]1[C@H]2CCC/C=C/[C@@H](O)[C@H]21` [Compound 1.16a, Methyl (1R,2R,8S,9S,E)-2-hydroxybicyclo[6.1.0]non-3-ene-9-carboxylate], the “Rate constants k2” value in assay [1] was 7.0 M⁻¹ s⁻¹.

Take `COC(=O)[C@H]1[C@H]2CCC/C=C/[C@@H](O)[C@H]21` [Compound 1.16b, Methyl (1R,2R,8S,9S,E)-2-hydroxybicyclo[6.1.0]non-3-ene-9-carboxylate]: in assay [1], the “Rate constants k2” value turned out to be 0.3 M⁻¹ s⁻¹.

`CN(Cc1ccccc1)C(=O)O[C@@H]1/C=C/CCC[C@@H]2[C@H](C(=O)ON3C(=O)CCC3=O)[C@@H]21` [Compound 1.21, 2,5-Dioxopyrrolidin-1-yl (1R,2R,8S,9S,E)-2-((benzyl(methyl)carbamoyl)oxy)bicyclo[6.1.0]non-3-ene-9-carboxylate]: the “Rate constants k2” value worked out at 8.0 M⁻¹ s⁻¹ in assay [1] and 605 M⁻¹ s⁻¹ in assay [2]. Besides, the “disappearance of the pink color (tetrazine consumption)” value in assay [3] is “within minutes”. Also, in assay [3], the “formation of the (pyridazine) elimination product” value is on record as “quantitative formation”.
